Laboratory results reported in patent US10308595B2, “Albicidin derivatives, their use and synthesis” (priority 2013, dated 2019).
Where two headings read alike, the source gives them in different places.

What was measured:
Format in all cases: cell-based
[1] = test system: Bacillus subtilis DSM10; assay: Test agar plates (disc diffusion), diameter of inhibition area; conditions: Bacillus subtilis, DSM10, 18 h, read-out: diameter of inhibition, Bacillus subtilis DSM10
Method: (§1) The dry compounds were dissolved in DMSO (1 mg/ml) and the so obtained stock solution was diluted with sterilized Millipore water 1:10 and 1:100
(§2) 20 μl of cryo stock of each strain were inoculated to 20 ml of Mueller-Hinton medium and grown overnight at 30° C. or 37° C. on a vertical shaker with 160 rpm. The inoculum for the test was adjusted by the 0.5 McFarland Standard (OD625 from 0.08 to 0.1)
Bacillus subtilis DSM10 [gram. Pos.] Medium: MHB/30° C.
(§3) Every plate is prepared by pouring 10 ml Mueller-Hinton agar into standard petri dishes (diam 94 mm). The so obtained Mueller-Hinton plates are overlayed with 4 ml Mueller-Hinton soft agar containing 100 μl suspension of the test strain.
(§4) After the soft agar turned solid, sterile susceptibility test discs were circular placed on the agar and on every test disc 10 μl compound was added. Each concentration is tested in triplicate. The agar dishes were incubated for 18 hours at a temperature of 30° C. or 37° C. Results are obtained by measuring the diameter of inhibition area around each test disc.

[2] = test system: Staphylococcus aureus DSM 2569; assay: as above; conditions: DSM2569, 18 h, test agar plates, active substance 1 mg/ml, "more than 1 cm and more than 2 cm" [sic], read-out: diameter of inhibition, Staphylococcus aureus DSM 2569
Method: as §1, §2
Staphylococcus aureus DSM 2569 [gram. Pos.] Medium: MHB/37° C.
as §3, §4

[3] = test system: Pseudomonas aeruginosa DSM1117; assay: as above; conditions: DSM1117, 18 h, read-out: diameter of inhibition, Pseudomonas aeruginosa DSM1117
Method: as §1, §2
Pseudomonas aeruginosa DSM1117 [gram. Neg.] Medium: MHB/37° C.
as §3, §4

[4] = test system: Escherichia coli albi-res (Montpellier); assay: as above; conditions: 18 h, read-out: diameter of inhibition, Escherichia coli albi-res (Montpellier)
Method: as §1, §2
Escherichia coli albi-res (Montpellier) [gram. Neg.] Medium: MHB/37° C.
as §3, §4

[5] = test system: Micrococcus luteus DSM1790; assay: as above; conditions: Micrococcus luteus, DSM1790, 18 h, read-out: diameter of inhibition, Micrococcus luteus DSM1790
Method: as §1, §2
Micrococcus luteus DSM1790 [gram. Pos.] Medium: MHB/37° C.
as §3, §4

[6] = test system: Escherichia coli DH5α; assay: as above; conditions: 18 h, read-out: diameter of inhibition, Escherichia coli DH5α
Method: as §1, §2
Escherichia coli DH5α [gram. Neg.] Medium: MHB/37° C.
as §3, §4

[7] = test system: Escherichia coli (ATCC 25922, 100-2-49 and 100-2-56); assay: EN-ISO standard test (ISO 20776-1), MIC
Method: (§5) Furthermore, compounds were tested against the following bacteria
(§6) according to EN-ISO standard (ISO 20776-1: 2006. Clinical laboratory testing and in vitro diagnostic test systems—Susceptibility testing of infectious agents and evaluation of performance of antimicrobial susceptibility test devices—Part 1:Reference method for testing the in vitro activity of antimicrobial agents against rapidly growing aerobic bacteria involved in infectious diseases; German version EN ISO 20776-1:2006. Beuth-Verlag, Berlin).

[8] = test system: Salmonella enteritidis (PEG-10-3-58); assay: EN-ISO standard test (ISO 20776-1), MIC
Method: as §5
Salmonella enteritidis (PEG-10-3-58),
as §6

[9] = test agar plates, active substance 1 mg/ml, more than 1 cm or more than 3.9 cm [sic]
[10] = test agar plates, active substance 1 mg/ml, more than 1 cm or more than 2 cm
[11] = test agar plates, active substance 1 mg/ml, "more than 1 cm and more than 2 cm" [sic]

| Compound | zone of inhibition at 1000 µg/mL [1, 9] | zone of inhibition at 1000 µg/mL [2] | zone of inhibition at 1000 µg/mL [3, 10] | zone of inhibition at 1000 µg/mL [4, 10] | zone of inhibition at 1000 µg/mL [5, 11] | zone of inhibition at 1000 µg/mL [6, 10] | also measured |
| --- | --- | --- | --- | --- | --- | --- | --- |
| COc1c(NC(=O)c2ccc(NC(=O)c3ccc(NC(=O)C(CC#N)NC(=O)c4ccc(NC(=O)c5ccc(O)cc5)cc4)cc3)c(OC)c2O)ccc(C(=O)O)c1O (centres unmarked) [Compound 7] | > 10 mm | > 10 mm | > 10 mm | > 10 mm | – | – | – |
| COc1c(NC(=O)c2ccc(NC(=O)c3ccc(NC(=O)C(CC#N)NC(=O)c4ccc(NC(=O)/C=C/c5ccccc5)cc4)cc3)c(OC)c2O)ccc(C(=O)O)c1O (centres unmarked) [Compound 3] | > 10 mm | > 10 mm | > 10 mm | > 10 mm | > 10 mm | > 10 mm | – |
| COc1c(NC(=O)c2ccc(NC(=O)c3ccc(NC(=O)C(CC#N)NC(=O)c4ccc(NC(=O)CCc5ccccn5)cc4)cc3)c(OC)c2O)ccc(C(=O)O)c1O (centres unmarked) [Compound 29] | > 10 mm | – | > 10 mm | – | – | – | zone of inhibition at 1000 µg/mL [4]: > 10 mm |
| COc1c(NC(=O)c2ccc(NC(=O)c3ccc(NC(=O)C(CC#N)NC(=O)c4ccc(NC(=O)c5ccco5)cc4)cc3)c(OC)c2O)ccc(C(=O)O)c1O (centres unmarked) [Compound 15] | > 10 mm | > 10 mm | – | > 10 mm | – | – | – |
| COc1c(NC(=O)c2ccc(NC(=O)c3ccc(NC(=O)C(CC#N)NC(=O)c4ccc(NC(=O)/C(C)=C/c5ccccc5)cc4)cc3)c(OC)c2O)ccc(C(=O)O)c1O (centres unmarked) [Compound 2] | > 10 mm | > 10 mm | > 10 mm | > 10 mm | > 10 mm | > 10 mm | – |
| COc1c(NC(=O)c2ccc(NC(=O)c3ccc(NC(=O)C(CC#N)NC(=O)c4ccc(NC(=O)C5CCCC5)cc4)cc3)c(OC)c2O)ccc(C(=O)O)c1O (centres unmarked) [Compound 41] | > 10 mm | – | – | > 10 mm | – | – | – |
| COc1c(NC(=O)c2ccc(NC(=O)c3ccc(NC(=O)C(CC#N)NC(=O)c4ccc(NC(=O)C5CC5)cc4)cc3)c(OC)c2O)ccc(C(=O)O)c1O (centres unmarked) [Compound 38] | > 10 mm | – | – | > 10 mm | – | – | – |
| CCC(CC)C(=O)Nc1ccc(C(=O)NC(CC#N)C(=O)Nc2ccc(C(=O)Nc3ccc(C(=O)Nc4ccc(C(=O)O)c(O)c4OC)c(O)c3OC)cc2)cc1 (centres unmarked) [Compound 39] | > 10 mm | – | – | > 10 mm | – | – | – |
| COc1c(NC(=O)c2ccc(NC(=O)c3ccc(NC(=O)C(CC#N)NC(=O)c4ccc(NC(=O)c5ccc(N6CCOCC6)cc5)cc4)cc3)c(OC)c2O)ccc(C(=O)O)c1O (centres unmarked) [Compound 8] | > 10 mm | > 10 mm | – | > 10 mm | – | > 10 mm | – |
| COc1c(NC(=O)c2ccc(NC(=O)c3ccc(NC(=O)C(CC#N)NC(=O)c4ccc(NC(=O)c5ccc(-c6ccccc6)cc5)cc4)cc3)c(OC)c2O)ccc(C(=O)O)c1O (centres unmarked) [Compound 9] | > 10 mm | > 10 mm | – | > 10 mm | > 10 mm | > 10 mm | – |
| COc1c(NC(=O)c2ccc(NC(=O)c3ccc(NC(=O)C(CC#N)NC(=O)c4ccc(NC(=O)c5ccc[nH]5)cc4)cc3)c(OC)c2O)ccc(C(=O)O)c1O (centres unmarked) [Compound 14] | > 10 mm | – | – | > 10 mm | – | – | – |
| COc1ccc(S(=O)(=O)Nc2ccc(C(=O)NC(CC#N)C(=O)Nc3ccc(C(=O)Nc4ccc(C(=O)Nc5ccc(C(=O)O)c(O)c5OC)c(O)c4OC)cc3)cc2)cc1 (centres unmarked) [Compound 49] | – | – | – | – | – | – | zone of inhibition at 1000 µg/mL [4]: > 10 mm |
| COc1c(NC(=O)c2ccc(NC(=O)c3ccc(NC(=O)C(CC#N)NC(=O)c4ccc(NC(=O)c5cccc(C(F)(F)F)c5)cc4)cc3)c(OC)c2O)ccc(C(=O)O)c1O (centres unmarked) [Compound 12] | > 10 mm | > 10 mm | > 10 mm | > 10 mm | > 10 mm | > 10 mm | – |
| COc1c(NC(=O)c2ccc(NC(=O)c3ccc(NC(=O)C(CC#N)NC(=O)c4ccc(NC(=O)C(C)(C)C)cc4)cc3)c(OC)c2O)ccc(C(=O)O)c1O (centres unmarked) [Compound 40] | > 10 mm | – | – | > 10 mm | – | – | – |
| COc1c(NC(=O)c2ccc(NC(=O)c3ccc(NC(=O)C(CC#N)NC(=O)c4ccc(NCc5ccc(-c6ccccc6)cc5)cc4)cc3)c(OC)c2O)ccc(C(=O)O)c1O (centres unmarked) [Compound 44] | – | – | – | – | – | – | zone of inhibition at 1000 µg/mL [1]: > 10 mm; zone of inhibition at 1000 µg/mL [5]: > 10 mm; zone of inhibition at 1000 µg/mL [3]: > 10 mm; zone of inhibition at 1000 µg/mL [4]: > 10 mm; zone of inhibition at 1000 µg/mL [6]: > 10 mm |
| CCCCCC(=O)Nc1ccc(C(=O)NC(CC#N)C(=O)Nc2ccc(C(=O)Nc3ccc(C(=O)Nc4ccc(C(=O)O)c(O)c4OC)c(O)c3OC)cc2)cc1 (centres unmarked) [Compound 34] | > 10 mm | > 10 mm | > 10 mm | – | – | > 10 mm | zone of inhibition at 1000 µg/mL [4]: > 10 mm |
| COc1c(NC(=O)c2ccc(NC(=O)c3ccc(NC(=O)C(CC#N)NC(=O)c4ccc(NC(=O)Nc5ccccc5)cc4)cc3)c(OC)c2O)ccc(C(=O)O)c1O (centres unmarked) [Compound 43] | > 10 mm | – | > 10 mm | – | – | – | zone of inhibition at 1000 µg/mL [4]: > 10 mm; MIC values (minimal inhibitory concentration), in words [7]: good to very good; MIC values, in words [8]: good to very good |
| COc1c(NC(=O)c2ccc(NC(=O)c3ccc(NC(=O)C(CC#N)NC(=O)c4ccc(NC(=O)Cc5ccc(Cl)cc5)cc4)cc3)c(OC)c2O)ccc(C(=O)O)c1O (centres unmarked) [Compound 26] | > 10 mm | – | > 10 mm | – | – | – | zone of inhibition at 1000 µg/mL [4]: > 10 mm |
| COc1c(NC(=O)c2ccc(NC(=O)c3ccc(NC(=O)C(CC#N)NC(=O)c4ccc(NC(=O)c5cccc(-c6ccccc6)c5)cc4)cc3)c(OC)c2O)ccc(C(=O)O)c1O (centres unmarked) [Compound 13] | > 10 mm | – | > 10 mm | > 10 mm | > 10 mm | > 10 mm | – |
| COc1c(NC(=O)c2ccc(NC(=O)c3ccc(NC(=O)C(CC#N)NC(=O)c4ccc(NC(=O)/C(C)=C/c5ccc(C(F)(F)F)cc5)cc4)cc3)c(OC)c2O)ccc(C(=O)O)c1O (centres unmarked) [Compound 4] | > 10 mm | > 10 mm | > 10 mm | > 10 mm | > 10 mm | > 10 mm | – |
| COc1c(NC(=O)c2ccc(NC(=O)c3ccc(NC(=O)C(CC#N)NC(=O)c4ccc(NC(=O)c5ccc(C#N)cc5)cc4)cc3)c(OC)c2O)ccc(C(=O)O)c1O (centres unmarked) [Compound 11] | > 10 mm | > 10 mm | > 10 mm | > 10 mm | > 10 mm | > 10 mm | – |
| COc1ccc(C(=O)Nc2ccc(C(=O)NC(CC#N)C(=O)Nc3ccc(C(=O)Nc4ccc(C(=O)Nc5ccc(C(=O)O)c(O)c5OC)c(O)c4OC)cc3)cc2)cc1 (centres unmarked) [Compound 10] | > 10 mm | > 10 mm | > 10 mm | > 10 mm | > 10 mm | > 10 mm | – |
